Assay results taken from ChEMBL document CHEMBL5614386, “Design, synthesis, and biological evaluation of novel 1-amido-2-one-4-thio-deoxypyranose as potential antitumor agents for multiple myeloma” (Bioorg Med Chem, 2024).
Calls of active or inactive are those of the source. The calls are words filed in the database; no cut-off is given here.

What was measured:
[1] = Anti-proliferative activity against human ARP-1 cells assessed as inhibition cell growth at 5 uM incubated for 72 hrs by CCK-8 assay relative to control; format: functional; design: scale not given: the % may be the effect or the level left
NCI-H929 [2] = experiment: Anti-proliferative activity against human NCI-H929 cells assessed as inhibition cell growth at 5 uM incubated for 72 hrs by CCK-8 assay relative to control; format: functional; design: scale not given: the % may be the effect or the level left
NCI-H929 [3] = experiment: Anti-proliferative activity against human NCI-H929 cells assessed as inhibition cell growth at 5 uM incubated for 72 hrs by CCK-8 assay; format: functional, cell-based
[4] = Anti-proliferative activity against human ARP-1cells assessed as cell growth inhibition incubated for 72 hrs by CCK-8 assay; conditions: ARP-1, 72 h
NCI-H929 [5] = experiment: Anti-proliferative activity against human NCI-H929 cells assessed as cell growth inhibition incubated for 72 hrs by CCK-8 assay; conditions: NCI-H929, 72 h
ARP-1 [6] = experiment: Anti-proliferative activity against human ARP-1 cells assessed as inhibition cell growth at 5 uM incubated for 72 hrs by CCK-8 assay; format: functional, cell-based
ARP-1 [7] = experiment: Anti-proliferative activity against human ARP-1 cells assessed as inhibition cell growth incubated for 72 hrs by CCK-8 assay; format: functional, cell-based
NCI-H929 [8] = experiment: Anti-proliferative activity against human NCI-H929 cells assessed as inhibition cell growth incubated for 72 hrs by CCK-8 assay; format: functional, cell-based
NCI-H929 [9] = experiment: Antitumor activity against human NCI-H929 cells xenografted in BALB/C nude mouse model assessed as reduction in tumor growth at 50 mg/kg, sc administrated every other day for 13 days; format: functional, organism-based; conditions: time 13.0 day
[10] = Toxicity in BALB/c mouse xenografted with human NCI-H929 cells assessed as effect on body weight at 50 mg/kg, sc administrated every other day for 13 days; format: organism-based; conditions: in vivo, 312 h, time 13 day

Structure (SMILES)	Activity [1]	Activity (NCI-H929 [2])	Activity (NCI-H929 [3])	Activity (ARP-1 [6])	other results
CC(=O)OC[C@H]1O[C@@H](NC(=O)c2ccc3c(c2)OCO3)C(O)CC1SCc1ccco1 (stereo partly drawn)	<20%	<20%	–	–	–
CC(=O)OC[C@H]1O[C@@H](NC(=O)c2ccccc2)C(=O)CC1Sc1ccc(Cl)cc1 (stereo partly drawn)	–	–	Active	Active	IC50 [4]: 1040 nM; IC50 (NCI-H929 [5]): 2680 nM
CC(=O)OC[C@H]1O[C@@H](NC(=O)c2ccc3c(c2)OCO3)C(=O)CC1Sc1cc(C)cc(C)c1 (stereo partly drawn)	–	–	Active	Active	IC50 [4]: 2290 nM; IC50 (NCI-H929 [5]): 1970 nM
COc1ccc(SC2CC(O)[C@H](NC(=O)c3ccc(OC)cc3)O[C@@H]2COC(C)=O)cc1 (stereo partly drawn)	<20%	<20%	–	–	–
COC1CC(=O)[C@H](NC(=O)c2ccc3c(c2)OCO3)O[C@@H]1COC(C)=O (stereo partly drawn)	–	–	inactive	inactive	–
COc1ccc(SC2CC(O)[C@H](NC(=O)c3ccc4c(c3)OCO4)O[C@@H]2CO)cc1 (stereo partly drawn)	–	–	–	–	Activity (ARP-1 [7]): Active; Activity (NCI-H929 [8]): Active
COc1ccc(SC2CC(O)[C@H](NC(=O)c3ccc4c(c3)OCO4)O[C@@H]2COC(C)=O)cc1 (stereo partly drawn)	<20%	<20%	–	–	–
CC(=O)OC[C@H]1O[C@@H](NC(=O)c2ccccc2)C(=O)CC1Sc1ccc(F)cc1 (stereo partly drawn)	–	–	Active	Active	–
CC(=O)OC[C@H]1O[C@@H](NC(=O)c2ccccc2)C(=O)CC1SCc1ccco1 (stereo partly drawn)	–	–	Active	Active	–
COc1ccc(SC2CC(=O)[C@H](NC(=O)c3ccco3)O[C@@H]2COC(C)=O)cc1 (stereo partly drawn)	–	–	Active	Active	–
CC(=O)OC[C@H]1O[C@@H](NC(=O)c2ccc3c(c2)OCO3)C(O)CC1Sc1cc(C)cc(C)c1 (stereo partly drawn)	<20%	<20%	–	–	–
COc1ccc(CSC2CC(O)[C@H](NC(=O)c3ccccc3)O[C@@H]2COC(C)=O)cc1 (stereo partly drawn)	<20%	<20%	–	–	–
CC(=O)OC[C@H]1O[C@@H](NC(=O)c2ccccc2)C(O)CC1SCc1ccc(F)cc1 (stereo partly drawn)	<20%	<20%	–	–	–
CNc1ccc(SC2CC(=O)[C@H](NC(=O)c3ccc4c(c3)OCO4)O[C@@H]2COC(C)=O)cc1 (stereo partly drawn)	–	–	Active	Active	–
COc1ccc(SC2CC(=O)[C@H](NC(=O)c3ccc(OC)cc3)O[C@@H]2COC(C)=O)cc1 (stereo partly drawn)	–	–	Active	Active	IC50 [4]: 1410 nM; IC50 (NCI-H929 [5]): 1200 nM
COc1ccc(SC2CC(O)[C@H](NC(=O)c3ccc4c(c3)OCO4)O[C@@H]2CO)cc1OC (stereo partly drawn)	–	–	–	–	Activity (ARP-1 [7]): Active; Activity (NCI-H929 [8]): Active
CC(=O)OC[C@H]1O[C@@H](NC(=O)c2ccc3c(c2)OCO3)C(=O)CC1SCc1ccc(Cl)cc1 (stereo partly drawn)	–	–	Active	Active	–
CC(=O)OC[C@H]1O[C@@H](NC(=O)c2ccccc2)C(=O)CC1SCCc1cnccn1 (stereo partly drawn)	–	–	Active	Active	–
CC(=O)OC[C@H]1O[C@@H](NC(=O)c2ccc3c(c2)OCO3)C(=O)CC1Sc1ccc(C)cc1 (stereo partly drawn)	–	–	Active	Active	IC50 [4]: 1560 nM; IC50 (NCI-H929 [5]): 850 nM
CC(=O)OC[C@H]1O[C@@H](NC(=O)c2ccccc2)C(O)CC1Sc1ccc(C)cc1 (stereo partly drawn)	<20%	<20%	–	–	–
COc1ccc(CSC2CC(=O)[C@H](NC(=O)c3ccc4c(c3)OCO4)O[C@@H]2COC(C)=O)cc1 (stereo partly drawn)	–	–	Active	Active	–
CC(=O)OC[C@H]1O[C@@H](NC(=O)c2ccc3c(c2)OCO3)C(=O)CC1SCc1ccc(C(C)(C)C)cc1 (stereo partly drawn)	–	–	Active	Active	–
CC(=O)OC[C@H]1O[C@@H](NC(=O)c2ccccc2)C(=O)CC1SCCNC(=O)OC(C)(C)C (stereo partly drawn)	–	–	Active	Active	–
CC(=O)OC[C@H]1O[C@@H](NC(=O)c2ccccc2)C(O)CC1Sc1ccc(Br)cc1 (stereo partly drawn)	<20%	<20%	–	–	–
CC(=O)OC[C@H]1O[C@@H](NC(=O)c2ccc3c(c2)OCO3)C(O)CC1SCc1ccc(F)cc1 (stereo partly drawn)	<20%	<20%	–	–	–
CC(=O)OC[C@H]1O[C@@H](NC(=O)c2ccc3c(c2)OCO3)C(=O)CC1SCc1ccco1 (stereo partly drawn)	–	–	Active	Active	IC50 [4]: 2710 nM; IC50 (NCI-H929 [5]): 3030 nM
COc1ccc(C(=O)N[C@@H]2O[C@H](COC(C)=O)C(Sc3ccc(C)cc3)CC2=O)cc1 (stereo partly drawn)	–	–	Active	Active	IC50 [4]: 4570 nM; IC50 (NCI-H929 [5]): 1600 nM

Structure (SMILES)	Activity [1]	Activity (NCI-H929 [2])	Activity (NCI-H929 [3])	Activity (ARP-1 [6])	other results
COc1ccc(CSC2CC(=O)[C@H](NC(=O)c3ccccc3)O[C@@H]2COC(C)=O)cc1 (stereo partly drawn)	–	–	Active	Active	–
CC(=O)OC[C@H]1O[C@@H](NC(=O)c2ccc3c(c2)OCO3)C(=O)CC1SCc1ccc(F)cc1 (stereo partly drawn)	–	–	Active	Active	–
CC(=O)OC[C@H]1O[C@@H](NC(=O)c2ccccc2)C(=O)CC1SCCCCCCO (stereo partly drawn)	–	–	Active	Active	–
CC(=O)OC[C@H]1O[C@@H](NC(=O)c2ccccc2)C(O)CC1Sc1ccc(Cl)cc1 (stereo partly drawn)	<20%	<20%	–	–	–
COc1ccc(SC2CC(=O)[C@H](NC(=O)c3ccc4c(c3)OCO4)O[C@@H]2COC(C)=O)cc1 (stereo partly drawn)	–	–	Active	Active	IC50 [4]: 1380 nM; IC50 (NCI-H929 [5]): 1460 nM
COc1ccc(SC2CC(O)[C@H](NC(=O)c3ccccc3)O[C@@H]2COC(C)=O)cc1 (stereo partly drawn)	<20%	<20%	–	–	–
COc1ccc(SC2CC(=O)[C@H](NC(=O)c3ccccc3)O[C@@H]2COC(C)=O)cc1 (stereo partly drawn)	–	–	Active	Active	–
CC(=O)OC[C@H]1O[C@@H](NC(=O)c2ccc3c(c2)OCO3)C(=O)CC1SCCCCCCO (stereo partly drawn)	–	–	Active	Active	–
COc1ccc(SC2CC(=O)[C@H](NC(=O)c3ccccc3)O[C@@H]2COC(C)=O)cc1OC (stereo partly drawn)	–	–	Active	Active	–
CC(=O)OC[C@H]1O[C@@H](NC(=O)c2ccc3c(c2)OCO3)C(=O)CC1SCCc1cnccn1 (stereo partly drawn)	–	–	Active	Active	–
COc1ccc(SC2CC(O)[C@H](NC(=O)c3ccc4c(c3)OCO4)O[C@@H]2COC(C)=O)cc1OC (stereo partly drawn)	<20%	<20%	–	–	–
Cc1ccc(SC2CC(O)[C@H](NC(=O)c3ccc4c(c3)OCO4)O[C@@H]2CO)cc1 (stereo partly drawn)	–	–	–	–	Activity (ARP-1 [7]): Active; Activity (NCI-H929 [8]): Active
CNc1ccc(SC2CC(O)[C@H](NC(=O)c3ccc4c(c3)OCO4)O[C@@H]2COC(C)=O)cc1 (stereo partly drawn)	<20%	<20%	–	–	–
O=C1C2C3C=CC(C4CC34)C2C(=O)N1c1ccc(Cc2ccncc2)cc1 (stereo not drawn)	–	–	Active	–	IC50 [4]: 5450 nM; IC50 (NCI-H929 [5]): 6880 nM; Activity (NCI-H929 [9]): Active; Activity [10]: Non-Toxic
CC(=O)OC[C@H]1O[C@@H](NC(=O)c2ccc3c(c2)OCO3)C(=O)CC1SC1CCCC1 (stereo partly drawn)	–	–	inactive	inactive	–
CC(=O)OC[C@H]1O[C@@H](NC(=O)c2ccccc2)C(=O)CC1Sc1ccc(C)cc1 (stereo partly drawn)	–	–	Active	Active	–
CC(=O)OC[C@H]1O[C@@H](NC(=O)c2ccc3c(c2)OCO3)C(=O)CC1SCCNC(=O)OC(C)(C)C (stereo partly drawn)	–	–	Active	Active	–
CC(=O)OC[C@H]1O[C@@H](NC(=O)c2ccc3c(c2)OCO3)C(O)CC1SCc1ccc(Cl)cc1 (stereo partly drawn)	<20%	<20%	–	–	–
COc1ccccc1SC1CC(=O)[C@H](NC(=O)c2ccccc2)O[C@@H]1COC(C)=O (stereo partly drawn)	–	–	Active	Active	–
CC(=O)OC[C@H]1O[C@@H](NC(=O)c2ccc3c(c2)OCO3)C(O)CC1Sc1ccc(C)cc1 (stereo partly drawn)	<20%	<20%	–	–	–
CC(=O)OC[C@H]1O[C@@H](NC(=O)c2ccccc2)C(=O)CC1SCc1ccc(C(C)(C)C)cc1 (stereo partly drawn)	–	–	Active	Active	–
CC(=O)OC[C@H]1O[C@@H](NC(=O)c2ccccc2)C(=O)CC1Sc1ccc(Br)cc1 (stereo partly drawn)	–	–	Active	Active	–
CC(=O)OC[C@H]1O[C@@H](NC(=O)c2ccccc2)C(=O)CC1SCc1ccc(F)cc1 (stereo partly drawn)	–	–	Active	Active	–
CC(=O)OC[C@H]1O[C@@H](NC(=O)c2ccccc2)C(=O)CC1SCc1ccc(Cl)cc1 (stereo partly drawn)	–	–	Active	Active	–
COc1ccccc1SC1CC(=O)[C@H](NC(=O)c2ccc3c(c2)OCO3)O[C@@H]1COC(C)=O (stereo partly drawn)	–	–	inactive	inactive	–
CC(=O)OC[C@H]1O[C@@H](NC(=O)c2ccccc2)C(O)CC1Sc1ccc(F)cc1 (stereo partly drawn)	<20%	<20%	–	–	–
